Laboratory results as given in patent US8497245B2, “Trypsin-like serine protease inhibitors, their preparation and use as selective inhibitors of the clotting factors IIa and Xa” (The Medicines Company (Leipzig) GmbH, priority 2010, dated 2013).

Target: T1, Human plasma kallikrein (h PK) (Homo sapiens, UniProt P03952)
T1 construct: purchased Enzyme Research Laboratories
Assay: Inhibition of human plasma kallikrein (reference enzyme)
Assay type: biochemical
Settings: S2302 substrate
Description: (§1) The inhibitory effect against the individual purified enzymes was determined in analogy to a previously disclosed method (Stürzebecher et al., J. Med. Chem., 40, 3091-3099 (1997)).
(§2) The release of p-nitroaniline (p-NA, the chromogenic product of the proteolytic activity), was determined by change in absorbance at 405 nm. The equilibrium rates were used to calculate the inhibitor/enzyme dissociation constant (Ki values) by parameter fitting in accordance with the rate equation for competitive inhibition using GraFit (version 4 from Erithacus). The results are reported as Ki values (nanomolar) in table 7 and are the average of at least three determinations.
(§3) Dissociation constants were calculated as described herein.

T1 sequence (P03952 391-638 limits assumed): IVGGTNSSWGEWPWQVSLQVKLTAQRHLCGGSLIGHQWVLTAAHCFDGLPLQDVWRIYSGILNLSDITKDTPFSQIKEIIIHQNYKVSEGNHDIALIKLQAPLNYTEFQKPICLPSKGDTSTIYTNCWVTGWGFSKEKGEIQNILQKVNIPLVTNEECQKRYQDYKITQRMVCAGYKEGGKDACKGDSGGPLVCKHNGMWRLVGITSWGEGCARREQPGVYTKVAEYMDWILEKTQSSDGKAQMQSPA
T1 sequence (P03952 20-390 partner limits assumed): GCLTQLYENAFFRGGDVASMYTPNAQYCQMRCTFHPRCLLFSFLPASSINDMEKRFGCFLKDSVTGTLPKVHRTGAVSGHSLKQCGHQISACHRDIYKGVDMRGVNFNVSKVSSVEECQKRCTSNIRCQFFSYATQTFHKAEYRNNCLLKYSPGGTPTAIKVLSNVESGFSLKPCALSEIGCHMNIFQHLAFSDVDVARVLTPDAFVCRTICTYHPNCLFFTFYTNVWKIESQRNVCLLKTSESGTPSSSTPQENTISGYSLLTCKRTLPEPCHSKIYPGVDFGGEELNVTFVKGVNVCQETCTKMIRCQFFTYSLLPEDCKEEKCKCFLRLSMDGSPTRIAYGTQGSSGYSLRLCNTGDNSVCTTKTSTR

Ki	SMILES
3.35 µM	NCc1ccc(Cl)cc1CNC(=O)[C@@H]1CCCN1C(=O)[C@@H](CC(=O)N1CC[C@@H](N)C1)NS(=O)(=O)Cc1ccccc1 [Compound 2.11]
1.69 µM	NCc1ccc(Cl)cc1CNC(=O)[C@@H]1CCCN1C(=O)[C@@H](CC(=O)N1CC[C@H](N)C1)NS(=O)(=O)Cc1ccccc1 [Compound 2.12]

Target: T2, Human tissue-type plasminogen activator (h t-PA) (Homo sapiens, UniProt P00750)
T2 construct: purchased Boehringer Ingelheim Actilyse
Assay: Inhibition of human tissue-type plasminogen activator (reference enzyme)
Assay type: biochemical
Settings: Pefachrome tPA substrate; read-out: Ki h t-PA
Description: The equilibrium rates were used to calculate the inhibitor/enzyme dissociation constant (Ki values) by parameter fitting in accordance with the rate equation for competitive inhibition using GraFit (version 4 from Erithacus).
as §3

T2 sequence (P00750 36-562): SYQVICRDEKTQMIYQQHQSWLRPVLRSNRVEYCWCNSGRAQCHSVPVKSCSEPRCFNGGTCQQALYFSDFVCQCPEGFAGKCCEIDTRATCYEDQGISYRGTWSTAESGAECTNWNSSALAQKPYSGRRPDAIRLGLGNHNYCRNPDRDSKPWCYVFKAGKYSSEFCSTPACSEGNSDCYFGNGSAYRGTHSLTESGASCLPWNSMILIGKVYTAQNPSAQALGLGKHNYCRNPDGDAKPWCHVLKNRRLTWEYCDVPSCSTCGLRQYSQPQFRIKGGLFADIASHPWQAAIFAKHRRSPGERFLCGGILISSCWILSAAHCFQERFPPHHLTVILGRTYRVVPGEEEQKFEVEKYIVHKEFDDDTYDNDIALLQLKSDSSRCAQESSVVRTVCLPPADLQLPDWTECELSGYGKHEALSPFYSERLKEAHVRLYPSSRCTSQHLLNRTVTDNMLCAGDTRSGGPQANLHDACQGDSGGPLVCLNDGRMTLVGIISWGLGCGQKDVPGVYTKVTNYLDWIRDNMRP

Ki	SMILES
> 100 µM	NCc1ccc(Cl)cc1CNC(=O)[C@@H]1CCCN1C(=O)[C@@H](CC(=O)N1CC[C@@H](N)C1)NS(=O)(=O)Cc1ccccc1 [Compound 2.11]
> 100 µM	NCc1ccc(Cl)cc1CNC(=O)[C@@H]1CCCN1C(=O)[C@@H](CC(=O)N1CC[C@H](N)C1)NS(=O)(=O)Cc1ccccc1 [Compound 2.12]

Target: T3, Human plasmin (h plasmin) (Homo sapiens, UniProt P00747)
T3 construct: purchased Calbiochem
Assay: Inhibition of human plasmin (reference enzyme)
Assay type: biochemical
Settings: Chromozym PL substrate
Description: as §1, §2, §3

T3 sequence (P00747 581-810 limits assumed): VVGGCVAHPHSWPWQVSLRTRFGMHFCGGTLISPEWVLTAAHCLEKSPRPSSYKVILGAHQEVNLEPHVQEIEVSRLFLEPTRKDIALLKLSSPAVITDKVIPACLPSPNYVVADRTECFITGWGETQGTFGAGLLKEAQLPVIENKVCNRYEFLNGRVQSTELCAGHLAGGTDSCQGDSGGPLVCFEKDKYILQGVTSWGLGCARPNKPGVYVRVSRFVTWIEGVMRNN
T3 sequence (P00747 97-580 partner limits assumed): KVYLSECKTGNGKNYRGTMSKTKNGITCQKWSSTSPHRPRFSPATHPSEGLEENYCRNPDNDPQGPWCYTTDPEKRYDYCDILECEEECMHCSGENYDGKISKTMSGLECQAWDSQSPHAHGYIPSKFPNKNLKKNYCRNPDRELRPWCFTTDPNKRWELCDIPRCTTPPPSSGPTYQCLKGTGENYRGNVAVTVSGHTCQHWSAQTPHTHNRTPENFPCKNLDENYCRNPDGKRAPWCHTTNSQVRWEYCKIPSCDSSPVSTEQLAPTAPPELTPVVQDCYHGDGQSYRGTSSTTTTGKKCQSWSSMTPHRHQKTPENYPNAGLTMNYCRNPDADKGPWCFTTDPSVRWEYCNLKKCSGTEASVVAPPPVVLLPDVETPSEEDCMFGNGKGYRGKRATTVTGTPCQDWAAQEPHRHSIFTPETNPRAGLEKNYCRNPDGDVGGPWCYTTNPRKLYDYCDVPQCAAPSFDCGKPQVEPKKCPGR

Ki	SMILES
> 100 µM	NCc1ccc(Cl)cc1CNC(=O)[C@@H]1CCCN1C(=O)[C@@H](CC(=O)N1CC[C@@H](N)C1)NS(=O)(=O)Cc1ccccc1 [Compound 2.11]
> 25 µM	NCc1ccc(Cl)cc1CNC(=O)[C@@H]1CCCN1C(=O)[C@@H](CC(=O)N1CC[C@H](N)C1)NS(=O)(=O)Cc1ccccc1 [Compound 2.12]

Target: T4, human factor IIa (human alpha-thrombin) (Homo sapiens, UniProt P00734)
T4 construct: human alpha-thrombin from Enzyme Research Laboratories; purchased Enzyme Research Laboratories
Assay: Inhibition constants for human factor IIa, chromogenic substrate assay
Assay type: biochemical
Settings: 25° C., Pefachrome tPA substrate, average of at least three determinations; read-out: Ki h FIIa
Description: as §1
(§4) 200 μL of TBS (0.05 M trishydroxymethylaminomethane; 0.154 M NaCl, 2% ethanol, pH 8.0)
as §2

Ki	SMILES
0.0059 µM	NCc1ccc(Cl)cc1CNC(=O)[C@@H]1CCCN1C(=O)[C@@H](CC(=O)N1CC[C@@H](N)C1)NS(=O)(=O)Cc1ccccc1 [Compound 2.11]
0.0029 µM	NCc1ccc(Cl)cc1CNC(=O)[C@@H]1CCCN1C(=O)[C@@H](CC(=O)N1CC[C@H](N)C1)NS(=O)(=O)Cc1ccccc1 [Compound 2.12]

Target: T5, Human Activated Protein C (h aPC) (Homo sapiens, UniProt P04070)
T5 construct: purchased Enzyme Research Laboratories
Assay: Inhibition of human activated protein C (reference enzyme)
Assay type: biochemical
Settings: Pefachrome PCa substrate
Description: as §1, §2, §3

T5 sequence (P04070 212-450 limits assumed): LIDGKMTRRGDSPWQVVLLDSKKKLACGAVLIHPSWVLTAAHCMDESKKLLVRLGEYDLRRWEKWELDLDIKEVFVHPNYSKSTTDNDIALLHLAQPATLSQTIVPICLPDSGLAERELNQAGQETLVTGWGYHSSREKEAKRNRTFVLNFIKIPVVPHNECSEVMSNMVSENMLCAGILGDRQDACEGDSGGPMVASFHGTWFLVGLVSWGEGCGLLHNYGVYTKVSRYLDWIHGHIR
T5 sequence (P04070 43-197 partner limits assumed): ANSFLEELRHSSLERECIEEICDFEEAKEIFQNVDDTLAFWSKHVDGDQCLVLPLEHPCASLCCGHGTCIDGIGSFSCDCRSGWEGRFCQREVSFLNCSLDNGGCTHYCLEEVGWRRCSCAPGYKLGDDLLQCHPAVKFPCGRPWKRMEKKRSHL

Ki	SMILES
> 50 µM	NCc1ccc(Cl)cc1CNC(=O)[C@@H]1CCCN1C(=O)[C@@H](CC(=O)N1CC[C@@H](N)C1)NS(=O)(=O)Cc1ccccc1 [Compound 2.11]
> 25 µM	NCc1ccc(Cl)cc1CNC(=O)[C@@H]1CCCN1C(=O)[C@@H](CC(=O)N1CC[C@H](N)C1)NS(=O)(=O)Cc1ccccc1 [Compound 2.12]

Target: T6, human Factor Xa (Homo sapiens, UniProt P00742)
T6 construct: human Factor Xa from Enzyme Research Laboratories; purchased Enzyme Research Laboratories
Assay: Inhibition constants for human factor Xa, chromogenic substrate assay
Assay type: biochemical
Settings: 25° C., Pefachrome FXa substrate, average of at least three determinations; read-out: Ki h FXa
Description: as §1, §4, §2

T6 sequence (P00742 235-488 limits assumed): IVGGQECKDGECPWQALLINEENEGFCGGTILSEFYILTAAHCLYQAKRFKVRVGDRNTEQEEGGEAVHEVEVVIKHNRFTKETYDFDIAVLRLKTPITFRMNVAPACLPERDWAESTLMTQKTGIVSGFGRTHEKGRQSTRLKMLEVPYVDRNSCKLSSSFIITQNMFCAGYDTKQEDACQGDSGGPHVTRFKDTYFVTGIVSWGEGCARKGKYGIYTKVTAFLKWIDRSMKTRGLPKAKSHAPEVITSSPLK
T6 sequence (P00742 41-179 partner limits assumed): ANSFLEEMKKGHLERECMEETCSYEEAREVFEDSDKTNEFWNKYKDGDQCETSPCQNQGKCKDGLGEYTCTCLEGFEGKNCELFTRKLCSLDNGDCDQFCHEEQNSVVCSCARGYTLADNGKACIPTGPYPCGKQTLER

Ki	SMILES
0.014 µM	NCc1ccc(Cl)cc1CNC(=O)[C@@H]1CCCN1C(=O)[C@@H](CC(=O)N1CC[C@@H](N)C1)NS(=O)(=O)Cc1ccccc1 [Compound 2.11]
0.014 µM	NCc1ccc(Cl)cc1CNC(=O)[C@@H]1CCCN1C(=O)[C@@H](CC(=O)N1CC[C@H](N)C1)NS(=O)(=O)Cc1ccccc1 [Compound 2.12]

Target: T7, Subcomponent "r" of Human Complement Component 1 (h C1r) (Homo sapiens, UniProt P00736)
T7 construct: purchased Calbiochem
T7 sequence (P00736 464-705 limits assumed): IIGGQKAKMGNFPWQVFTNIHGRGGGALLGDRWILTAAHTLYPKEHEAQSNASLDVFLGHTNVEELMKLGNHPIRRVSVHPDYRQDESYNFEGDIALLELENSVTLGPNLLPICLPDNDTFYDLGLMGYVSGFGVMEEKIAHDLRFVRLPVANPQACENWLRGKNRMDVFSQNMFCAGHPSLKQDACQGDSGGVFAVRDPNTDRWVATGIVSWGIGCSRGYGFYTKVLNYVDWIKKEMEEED
T7 sequence (P00736 18-463 partner limits assumed): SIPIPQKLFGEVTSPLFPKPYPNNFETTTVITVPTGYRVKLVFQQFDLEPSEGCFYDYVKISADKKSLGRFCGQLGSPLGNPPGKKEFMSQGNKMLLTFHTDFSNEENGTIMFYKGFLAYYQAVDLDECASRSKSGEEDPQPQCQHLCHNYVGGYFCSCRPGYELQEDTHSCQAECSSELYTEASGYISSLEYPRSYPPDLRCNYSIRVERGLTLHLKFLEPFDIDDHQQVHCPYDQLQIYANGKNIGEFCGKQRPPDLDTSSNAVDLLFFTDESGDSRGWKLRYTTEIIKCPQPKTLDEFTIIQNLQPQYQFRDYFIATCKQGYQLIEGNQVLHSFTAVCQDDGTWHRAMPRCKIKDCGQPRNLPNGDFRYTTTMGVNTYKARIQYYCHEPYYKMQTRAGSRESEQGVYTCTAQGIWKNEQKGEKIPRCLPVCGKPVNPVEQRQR
Assay: Inhibition of human C1r (reference enzyme)
Assay type: biochemical
Settings: S-2314 substrate; read-out: Ki h Clr
Description: as §1, §2, §3

Ki	SMILES
> 50 µM	NCc1ccc(Cl)cc1CNC(=O)[C@@H]1CCCN1C(=O)[C@@H](CC(=O)N1CC[C@@H](N)C1)NS(=O)(=O)Cc1ccccc1 [Compound 2.11]
> 100 µM	NCc1ccc(Cl)cc1CNC(=O)[C@@H]1CCCN1C(=O)[C@@H](CC(=O)N1CC[C@H](N)C1)NS(=O)(=O)Cc1ccccc1 [Compound 2.12]

Target: T8, Subcomponent "s" of Human Complement Component 1 (h C1s) (Homo sapiens, UniProt P09871)
T8 construct: purchased Calbiochem
T8 sequence (P09871 438-688 limits assumed): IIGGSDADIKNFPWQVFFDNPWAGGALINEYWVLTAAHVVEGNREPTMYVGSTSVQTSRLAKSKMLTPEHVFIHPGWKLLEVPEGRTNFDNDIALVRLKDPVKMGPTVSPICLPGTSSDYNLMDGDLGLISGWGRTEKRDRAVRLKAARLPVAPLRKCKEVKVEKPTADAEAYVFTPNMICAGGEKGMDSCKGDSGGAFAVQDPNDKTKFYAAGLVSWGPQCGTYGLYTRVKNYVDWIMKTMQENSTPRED
T8 sequence (P09871 16-437 partner limits assumed): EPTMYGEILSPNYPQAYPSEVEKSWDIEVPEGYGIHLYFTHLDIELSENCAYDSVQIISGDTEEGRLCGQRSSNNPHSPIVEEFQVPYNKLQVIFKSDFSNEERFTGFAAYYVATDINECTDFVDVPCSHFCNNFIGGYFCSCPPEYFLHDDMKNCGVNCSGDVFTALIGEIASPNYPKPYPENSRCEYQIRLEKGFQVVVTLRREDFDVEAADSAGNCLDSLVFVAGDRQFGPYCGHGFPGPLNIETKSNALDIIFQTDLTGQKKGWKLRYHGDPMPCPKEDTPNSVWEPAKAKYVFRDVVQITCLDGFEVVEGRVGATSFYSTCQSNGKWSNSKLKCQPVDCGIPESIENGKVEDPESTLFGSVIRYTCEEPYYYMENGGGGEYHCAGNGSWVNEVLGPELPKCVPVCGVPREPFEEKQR
Assay: Inhibition of human C1s (reference enzyme)
Assay type: biochemical
Settings: S-2314 substrate; read-out: Ki h Cls
Description: as §1, §2, §3

Ki	SMILES
> 100 µM	NCc1ccc(Cl)cc1CNC(=O)[C@@H]1CCCN1C(=O)[C@@H](CC(=O)N1CC[C@@H](N)C1)NS(=O)(=O)Cc1ccccc1 [Compound 2.11]
> 30 µM	NCc1ccc(Cl)cc1CNC(=O)[C@@H]1CCCN1C(=O)[C@@H](CC(=O)N1CC[C@H](N)C1)NS(=O)(=O)Cc1ccccc1 [Compound 2.12]

Target: T9, Human urokinase type plasminogen activator (h u-PA) (Homo sapiens, UniProt P00749)
T9 construct: purchased MEDAC GmbH Urokinase HS medac
Assay: Inhibition of human urokinase type plasminogen activator (reference enzyme)
Assay type: biochemical
Settings: H-Glu-Gly-Arg-pNA substrate
Description: as §1, §2, §3

Ki	SMILES
> 20 µM	NCc1ccc(Cl)cc1CNC(=O)[C@@H]1CCCN1C(=O)[C@@H](CC(=O)N1CC[C@@H](N)C1)NS(=O)(=O)Cc1ccccc1 [Compound 2.11]
> 50 µM	NCc1ccc(Cl)cc1CNC(=O)[C@@H]1CCCN1C(=O)[C@@H](CC(=O)N1CC[C@H](N)C1)NS(=O)(=O)Cc1ccccc1 [Compound 2.12]

Target: T10, Human urinary kallikrein (h uKK) (Homo sapiens, UniProt P06870)
T10 construct: purchased Lee Biosolutions
Assay: Inhibition of human urinary kallikrein (reference enzyme)
Assay type: biochemical
Settings: S-2266 substrate
Description: as §1, §2, §3

T10 sequence (P06870 25-262): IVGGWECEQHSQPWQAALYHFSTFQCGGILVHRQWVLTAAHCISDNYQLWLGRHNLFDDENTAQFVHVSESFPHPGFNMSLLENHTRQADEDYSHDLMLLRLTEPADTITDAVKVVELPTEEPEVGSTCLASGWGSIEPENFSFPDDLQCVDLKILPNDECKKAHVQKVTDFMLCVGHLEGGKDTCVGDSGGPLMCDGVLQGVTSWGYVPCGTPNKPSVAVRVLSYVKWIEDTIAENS

Ki	SMILES
> 50 µM	NCc1ccc(Cl)cc1CNC(=O)[C@@H]1CCCN1C(=O)[C@@H](CC(=O)N1CC[C@@H](N)C1)NS(=O)(=O)Cc1ccccc1 [Compound 2.11]
> 20 µM	NCc1ccc(Cl)cc1CNC(=O)[C@@H]1CCCN1C(=O)[C@@H](CC(=O)N1CC[C@H](N)C1)NS(=O)(=O)Cc1ccccc1 [Compound 2.12]
